Patent publication US11298402B2, “Lysosomal degradation of lipids and proteins and method of use thereof” (University of Ottawa, priority 2015, dated 2022)

Key:
[1] = test system: McA-RH7777 cells (A18-C3); assay: Live imaging of lysosomal motility and lysosome-CLD interaction (kiss-and-run); format: cell-based, rat
Method: In certain non-limiting examples described herein, McA-RH7777 cells stably expressing human apoB-100 and human apoC-III (designated A18-C3) were used for the studies. […] In addition, these studies, particularly those concerning EPA- or DHA-triggered lysosomal motility and CLD degradation, were also performed using primary rat hepatocytes. Transfection of plasmids encoding proteins of interest, or transfection of siRNA specific for silencing target gene expression, was achieved using the FuGENE HP Extreme reagent (Roche). Representative gene silencing siRNA sequences, which are not meant to be limiting, are described in Table 1, and plasmids encoding proteins of interest are described in Table 2. The effectiveness of siRNA silencing was verified by Western-blotting of cellular content of the target proteins, and by intracellular localization assay using siRNA-Tracker (Mirus Bioscience). Twenty-four h after plasmid transfection, or 48 h after siRNA transfection, the cells were cultured in lipid-rich media containing fetal bovine serum (20%) and OA (0.4 mM). The lipid-laden cells were switched to fresh media supplemented with OA or EPA (0.4 mM). In live imaging experiments, LipidTOX Red (Life Technologies) and LysoTracker (Life Technologies) were added to media prior to EPA treatment, to visualize lipid droplets and lysosomes, respectively. For visualizing peroxisomes, Peroxisome-GFP (Invitrogen) was introduced to the cells 24 h prior to experiments. Quantification of cell lipid contents was achieved either by direct mass measurement (HPTLC) and counting the number of lipid droplets using Image J Lipid Droplet Counter Plug-In, or indirectly by Western blot analysis of cellular content of ADRP. Secretion of apoB and TG-rich lipoprotein was determined by Western blot analysis and metabolic labeling. Mitochondrial β-oxidation was measured using MitoSOX Red (Life Technologies) in situ. Autophagic flux was determined by using Cyto-ID assay (Enzo Life Science) and by monitoring GFP-LC3 clustering in situ. Interaction of Arl8b and subunits of the HOPS complex was determined in situ by the proximity ligation assay (Olink Biosience). Cytoplasmic pH was measured using the cytosolic pHrodo indicator reagent (Invitrogen). Live imaging of fluorescent-tagged proteins was performed 1 h post-EPA treatment. Cells were also collected at the time of EPA treatment for transmission EM and tomography, as well as immuno-EM. For movies, cells were imaged at 60 sec intervals every 5 min, for a total of 30 min.
Cells were grown on 35-mm glass bottom dishes (Ibidi GmbH München, Germany) for 16 h in DMEM supplemented with FBS (20%) and OA (0.4 mM). Cells were imaged using a Zeiss 510 META laser scanning confocal microscope with a heated CO2-controlled stage (5% CO2 at 37° C.). Images were captured at a frame-rate of 30 frame/sec using a 63×. N.A.1.4 objective. Recommended laser lines and filter combinations were used for each dye. For visualization of lipid droplets, lysosomes, mitochondria, and mitochondrial β-oxidation, the respective reagents LipidTOX Red (Invitrogen), LysoTracker (Life Technology), MitoTracker (Life Technology), MitoSox Red (Invitrogen), and Peroxisome-GFP BacMam2.0 (Invitrogen) were introduced into the cells, according to manufacturers' recommendations, prior to EPA treatment.
Cells were cultured with lipid-rich media containing OA (0.4 mM) for 16 h. The lipid-laden cells were switched to fresh media containing EPA (0.4 mM) for 1 h, and the lysosomal movement towards lipid droplets was recorded by time-lapse microscopy. Fluorescent intensity of lysosomal signals at the periphery of selected individual lipid droplet was measured using Image J Live Intensity Profiler Plug-in^31-33 over a period of 40 sec. Quantification for each condition was carried out for 60 individual lipid droplets from three independent experiments. Constant threshold was applied to all of the images in each experiment.

[2] = test system: McA-RH7777 cells (A18-C3); assay: Measurement of cytosolic pH (pHrodo); format: cell-based, rat; settings: OA or EPA treatment
Method: In certain non-limiting examples described herein, McA-RH7777 cells stably expressing human apoB-100 and human apoC-III (designated A18-C3) were used for the studies. […] In addition, these studies, particularly those concerning EPA- or DHA-triggered lysosomal motility and CLD degradation, were also performed using primary rat hepatocytes. Transfection of plasmids encoding proteins of interest, or transfection of siRNA specific for silencing target gene expression, was achieved using the FuGENE HP Extreme reagent (Roche). […] Quantification of cell lipid contents was achieved either by direct mass measurement (HPTLC) and counting the number of lipid droplets using Image J Lipid Droplet Counter Plug-In, or indirectly by Western blot analysis of cellular content of ADRP. Secretion of apoB and TG-rich lipoprotein was determined by Western blot analysis and metabolic labeling. Mitochondrial β-oxidation was measured using MitoSOX Red (Life Technologies) in situ. Autophagic flux was determined by using Cyto-ID assay (Enzo Life Science) and by monitoring GFP-LC3 clustering in situ. Interaction of Arl8b and subunits of the HOPS complex was determined in situ by the proximity ligation assay (Olink Biosience). Cytoplasmic pH was measured using the cytosolic pHrodo indicator reagent (Invitrogen). […]

[3] = test system: hepatic cells; assay: Prolonged oleate treatment (OA-induced steatosis) of hepatic cells; format: cell-based; settings: oleate 0.4 mM for up to 3 days
Description: FIG. 36 illustrates that the LD content in cells cultured under lipid-rich conditions may be manipulated by expression of different forms of Arl8b. Images in the top row show position of lysosomes in cells cultured in a lipid-rich medium (i.e. supplemented with oleate) for up to 4 days. After 1-day treatment with oleate, lysosomes (stained with LysoTracker, green) were accumulated in the perinuclear regions of cells. However after 2-day oleate treatment, lysosomes were relocated towards the LDs at cell periphery. The relocation of lysosomes from the perinuclear region toward cell periphery indicates perturbed lysosomal motility under oleate-treatment conditions, which leads to prolonged association of lysosomes with LDs. Accumulation/higher interaction of lysosomes on LDs became more pronounced after 3- and 4-day treatment with oleate, with clear rings of lysosomes around LDs. Expression of the GDP-bound form of Arl8b, or Arl8b^T34N (or Arl8b “DN”, dominant negative), protects hepatocytes from accumulation of LDs upon long-term treatment with oleate. Note that even after 3 days, cells expressing Arl8b “DN” were healthy and accumulated low numbers of LDs (middle row). In contrast, expression of the GTP-bound form of Arl8b, or Arl8b^Q75L (or Arl8b “DA”, dominant active), exacerbated accumulation of LDs in cells (images in the bottom row). In fact, the cells could not tolerate long-term treatment and started to die after day 2. This situation may be similar to that in advanced levels of fatty liver, which causes hepatocyte apoptosis;
In these cells, lysosomes were continuously in contact with CLD, indicative of stalled lysosomal motility. This persistent lysosomal interaction with CLDs (i.e. “kiss” without “run”) clearly indicates the interfered process of microautophagy and lack of a mechanism in the cells, after prolonged OA treatment, that facilitates dissociation of lysosomes from CLDs, blocking the engulfment process. Thus, phenotypically, accumulation of CLD in cells cultured in lipid-rich media (e.g. supplementation with 0.4 mM OA) is invariably associated with a compromised lysosomal motility (i.e. kiss-and-run).

Structure (SMILES): CCCCCCCC/C=C\CCCCCCCC(=O)O [OA, oleic acid, reference compound]
- lysosomal motility and direct lysosomal interaction with CLD ([1]; fatty acid added to lipid-laden cells, live imaging): reduced levels of interaction between lysosomes and lipid droplets
- activation of microautolipophagy ([1]; oleate treatment): transient and is of low magnitude
- duration of the brief activation of microautolipophagy ([1]; oleate treatment): 10 to 15 min
- cytoplasmic pH [2]: neutral
- steatosis (CLD accumulation) [3]: developed severe steatosis
